# Target: T1, GST-hLGK1 (human liver type GK) (Homo sapiens, UniProt P35557)
# T1 construct: made in house; host or cells: Escherichia coli BL21 (Stratagene), plasmid pGEX6P-2/hLGK1
# T1 sequence (P35557 1-464 isoform P35557-3): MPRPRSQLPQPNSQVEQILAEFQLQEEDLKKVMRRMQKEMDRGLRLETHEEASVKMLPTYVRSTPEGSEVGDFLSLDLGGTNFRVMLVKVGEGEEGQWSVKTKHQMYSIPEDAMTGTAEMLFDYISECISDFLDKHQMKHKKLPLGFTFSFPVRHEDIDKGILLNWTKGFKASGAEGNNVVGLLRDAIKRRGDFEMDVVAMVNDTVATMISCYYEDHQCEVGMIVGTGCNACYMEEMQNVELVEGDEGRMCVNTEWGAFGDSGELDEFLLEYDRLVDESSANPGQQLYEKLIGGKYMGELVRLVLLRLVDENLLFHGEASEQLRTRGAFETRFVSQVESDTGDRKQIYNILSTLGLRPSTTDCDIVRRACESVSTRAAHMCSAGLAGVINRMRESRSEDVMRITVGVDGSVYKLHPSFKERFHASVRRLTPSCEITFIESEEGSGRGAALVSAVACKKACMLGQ
# Assay: Measurement of GK activation value (Mant-ATP/Mant-ADP capillary electrophoresis)
# Format: biochemical
# Conditions: test compound 10 μmol/L; 5 mmol/L D-glucose; reaction rate as percentage of control group without test compound
# Method: A plasmid DNA used for expression of a protein (GST-hLGK1) having GST (Glutathione S-transferase) added to the amino terminal of human liver type GK in Escherichia coli was prepared as follows.
# BL21 strain (Stratagene) transformed with pGEX6P-2/hLGK1 obtained in Reference Example 1A was cultured with shaking in a 200 ml Erlenmeyer flask containing LB medium (50 ml) containing 100 μg/ml ampicillin at 37° C. for 14 hr. The cultured broth (25 ml) was diluted with LB medium (225 ml) containing 100 μg/ml ampicillin, and cultured with shaking in a 1 L Erlenmeyer flask at 37° C. for 1 hr. The Erlenmeyer flask after culture was cooled on ice, 100 mM Isopropyl-Thio-β-D-Galactopyranoside (IPTG) (125 μL) was added (final concentration 50 μM), and the cells were cultured at 17° C. for 20 hr. The cultures broth was centrifuged, and the obtained cells were disrupted by ultrasonication, and the object protein (GST-hLGK1) was purified from the supernatant using Glutathione Sepharose 4B (Amersham Biosciences).
# GK enzyme reactions were performed in 50 mmol/L HEPES pH7.4, 200 mmol/L KCl, 5 mmol/L MgCl2, 2 mmol/L DTT, containing 50 μmol/L 2′-(or-3′)-O—(N-methylanthraniloyl)adenosine 5′-triphosphate (Mant-ATP) (Jena Bioscience GmbH), 5 mmol/L D-glucose, 5% DMSO and 6 μg/mL GST-hLGK1 obtained in Reference Example 2A in a total volume 50 μL. The reactions were performed in 384 well black plates (Nalge Nunc International K.K.). Prior to the reaction, the enzyme and test compound were incubated for 10 min at 37° C., and 25 mM D-glucose solution (10 μL) was added to start the reaction. The final concentration of the test compound is 10 μmol/L. After the incubation for 60 min at 37° C., the reaction was quenched by adding 25 μL of a quenching solution (containing 200 mM HEPES (pH 7.4), 20 mM MgCl2, 200 mM EDTA, 0.03% Triton-X 100, 0.3% Coating 3 reagent (Caliper Life Sciences, Inc.)).
# Mant-ATP (substrate, 2′-(or-3′)-O—(N-methylanthraniloyl)adenosine 5′-triphosphate) and Mant-ADP (reaction resultant product) were separated from each well after the reaction by a microchip type capillary electrophoresis apparatus 250 HTS (Caliper Life Sciences, Inc.). The reaction rate [(reaction resultant product peak height)/(reaction resultant product peak height+substrate peak height)×100(%)] was calculated from the ratio of the substrate peak height and reaction resultant product peak height obtained by fluorescence detection (excitation wavelength 355 nm, measurement wavelength 460 nm) and used as the index of GK activity.
# As a control group, the reaction rate was calculated in the same manner as above without the test compounds. […]
row,SMILES,Emax at 10 µM [%]
1,"Cn1nc(C(CC2CCOCC2)c2ccc(-c3ncc(CO)s3)[nH]2)cc1S(C)(=O)=O (stereo not shown) [Example 2, [2-(5-{1-[1-methyl-5-(methylsulfonyl)-1H-pyrazol-3-yl]-2-(tetrahydro-2H-pyran-4-yl)ethyl}-1H-pyrrol-2-yl)-1,3-thiazol-5-yl]methanol]",138
2,"COc1ccnc2c1cnn2C(CC1CCOCC1)c1ccc(-c2ccc(C(O)C(C)(C)O)cn2)[nH]1 (stereo not shown) [Example 3, 1-(6-{5-[1-(4-methoxy-1H-pyrazolo[3,4-b]pyridin-1-yl)-2-(tetrahydro-2H-pyran-4-yl)ethyl]-1H-pyrrol-2-yl}pyridin-3-yl)-2-methylpropane-1,2-diol]",124
3,"CC(C)(O)C(O)c1ccc(-c2ccc(C(CC3CCOCC3)n3ncc4c(S(=O)(=O)C5CC5)cccc43)[nH]2)nc1 (stereo not shown) [Example 4, 1-[6-(5-{1-[4-(cyclopropylsulfonyl)-1H-indazol-1-yl]-2-(tetrahydro-2H-pyran-4-yl)ethyl}-1H-pyrrol-2-yl)pyridin-3-yl]-2-methylpropane-1,2-diol]",161
4,"COc1ccc2c(cnn2C(CC2CCOCC2)c2ccc(-c3ccc(C(O)C(C)(C)O)cn3)[nH]2)c1S(=O)(=O)C1CC1 (stereo not shown) [Example 5, 1-[6-(5-{1-[4-(cyclopropylsulfonyl)-5-methoxy-1H-indazol-1-yl]-2-(tetrahydro-2H-pyran-4-yl)ethyl}-1H-pyrrol-2-yl)pyridin-3-yl]-2-methylpropane-1,2-diol]",162

# From patent publication US8349886B2, “Nitrogenated 5-membered heterocyclic compound” (Takeda Pharmaceutical Company Limited, priority 2008, dated 2013)
